{"source": "patent US5723496A", "about": "“Method for prevention and treatment of harmful effects of intracellular acidosis” (priority 1995, dated 1998)", "key": {"[1]": {"tested_on": "adult mice exposed to anoxia", "test": "survival of adult mice exposed to anoxia", "format": "in vivo, Adult Swiss mice", "parameters": "mortality, 2.5 minutes of anoxia / protection against 2.5 minutes anoxia: concentration or dose not given beside the values", "settings": "for protection against anoxia / survival (in words): sulfate", "method": "Adult Swiss mice (BK-1 males, 20 g) purchased from Bantin & Kingman, Fremont, Calif. were used. Each batch consisted of 10 mice. Within each batch five mice were selected randomly as experimental animals and the remaining five as controls. Experimental mice received daily intraperitoneal injections of 0.25 ml of GES (50 mg/ml) for 14 days.\nAt day 14, all mice within the same batch (5 experimental and 5 each of the […]) were placed in a specially designed chamber (26.5×24.5×21.0 cm). Anoxia/hypoxia was produced by infusion of pure nitrogen gas ([…]) into the chamber for 2.5 or 2.75 minutes. Anoxia/hypoxia was reversed immediately after these intervals by removing the chamber and placing the mice in a room air environment.\nThe results are shown in FIG. 1 and discussed in detail above."}, "[2]": {"tested_on": "mouse brain intracellular acidosis", "test": "in vivo brain pH before and after 2 min anoxia (Example 4)", "parameters": "species or system mice", "settings": "for brain pH after anoxia / brain pH before anoxia: mice, 3.75 mmole/kg/day i.p., 14 days; for brain pH after anoxia: 2 min anoxia", "method": "Using the same experimental procedure as in Example 3, in vivo pH buffering property of guanidinoethanesulfonic acid against the in vivo intracellular acidosis and pH depression caused by anoxia was evaluated.\nAqueous solution of guanidinoethanesulfonic acid (0.3M) was administered daily intraperitoneally to five mice at a dose of 3.75 mmole/kg/day for a period of 14 days. The same number of control mice (5) received intraperitoneal administration of physiological saline solution at a dose of 0.25 ml/animal/day for the same period (14 days).\nAfter the 14 days of administration period of GES or saline, animals were placed in a chamber filled with pure 100% nitrogen for 2 minutes to produce the anoxia state. The pH of the brain was measured in vivo before and after the anoxia by the technique of ^31 P spectroscopy using Omega-7 Tesla Magnetic Resonance Spectrophotometer."}, "[3]": {"parameters": "species or system gerbil", "settings": "in vivo", "method": "Adult male gerbils (ca. 70 g) were divided into three groups of 5 gerbils each. Control group received saline and experimental group received GES. Taurine group served as an additional control. […] The saline group received 0.25 ml of saline injections.\nAfter two weeks, animals were sacrificed by exsanguination under pentobarbital anesthesia. Brains were removed and fixed in liquid nitrogen. The frozen brains were pulverized in a liquid nitrogen cooled mortar and pestle, and mixed with 4 volumes of 0.5N powdered frozen perchloric acid. The powder mixture was centrifuged in liquid nitrogen cooled centrifuge tubes at 16,000 rpm at -4° C. for 30 minutes. The supernatant was removed and titrated to a pH of 9.0-9.5 by the addition of potassium bicarbonate. The solution was stored in an ice bath for 15 minutes and the potassium perchlorate precipitate was removed by centrifugation at 16,000 rpm at -4° C.\nAliquots (0.5 ml) of the extracts obtained above were placed on a dual bed ion exchange column containing 6×0.5 cm Dowex AG1 anion exchange resin (chloride form) layered over 6×0.5 cm Dowex AG50 cation exchange resin (hydrogen form). Water (3 ml) then added to the column. The eluent, guanidinoethyl sulfonate, was free from other naturally occurring guanidino compounds, such as arginine. […] After 18 min., absorbance was read at 545 nm using a Gilford Spectrophotometer to determine brain GES level."}, "[4]": {"tested_on": "CA1 neurons", "test": "neuronal density in CA1 region, gerbil forebrain ischemia model", "format": "in vivo", "method": "The gerbil forebrain ischemia model of Kirino (REFERENCE, please) was employed as follows.\nAnimals were divided into 4 groups. Two groups of 5 animals each served as control.\nFirst control group was administered daily for fourteen days 0.25 ml of saline. No ischemia was induced.\nSecond control group was administered 0.25 ml of 625 mg/kg of GES daily for fourteen days. No ischemia was induced.\nThird group of ten animals was control ischemia group. This group was administered with 0.25 ml of saline daily for 14 days. Then, the ischemia was induced.\nFourth group of 16 animals was administered 0.25 ml of 625 mg/kg of GES for 14 days, followed by induced ischemia.\nAnimals were anesthetized with 1% halothane, 70% nitrous oxide, and 29% oxygen. The subscalp and rectal temperature were monitored and kept constant at 37° C. using a controlled heating system starting 30 minutes prior to one hour after induction of ischemia. Ischemia in experimental groups (saline and GES ischemia groups) was induced by occlusion of the carotid arteries bilaterally for 5 minutes using small aneurysm clips. Animals in the two control groups (saline and GES controls) received sham surgery but no ischemia was induced.\nSeven days after induced ischemia and recirculation, animals were perfused transcardially with 50 cc of normal saline followed by 500 cc of 5% paraformaldehyde in 0.1M phosphate buffer (pH=7.3), at 100 cm H2 O, under deep pentobarbital anesthesia. Brains were removed and fixed in the same buffered paraformaldehyde solution for 14 days. Sections (6 μm thick) containing the dorsal hippocampus at the level 1.4-1.7 mm posterior to the bregma were prepared on a cryostat from paraffin embedded brain. Sections were stained with hematoxylin and eosin and examined in a double blinded fashion. The number of viable neurons within the CA1 region was counted using an Olympus BH-2 microscope at ×400. The results represents the average of the counts."}, "[5]": {"tested_on": "post-ischemia hyperactivity", "test": "motor activity (distance traveled) before and after ischemia", "format": "in vivo, gerbil", "method": "Ischemia was induced as described above. Motor activity was analyzed using a PC driven automatic behavior analyzer as follows. Animals were placed individually in automated motor activity chambers (Omnitech Digiscan, Columbus, Ohio). A horizontally aligned array of […] infrared beams on each side of the chamber (39×39×39 cm high), located 2.5 cm above the floor and 2.5 cm apart, detected animals movements. […] Animals were studied prior to and 1, 2, 3, 7 day after induction of ischemia. Motor activity was monitored for 6 hours between 11:00 pm and 5:00 am."}, "[6]": {"test": "observation of behavior and respiratory pattern", "format": "in vivo, Adult Swiss mice", "settings": "two weeks i.p.", "description": "Adult Swiss mice (BK-1 male 20 g) purchased from Bantin & Kingman, Fremont, Calif., were used. Each batch consisted of 15 mice. Within each batch, five mice were selected randomly to be in the GES, taurine, or control group. A taurine group was included to serve as additional control."}, "[7]": {"tested_on": "taurine transport into the brain", "settings": "sulfate; cited from earlier work"}, "[8]": {"settings": "listed as guanidinoethane sulfate"}}, "note": "“Also recorded” adds a separate entry of the source. Structures can show the parent of a compound that is named as a salt.", "data": [{"smiles": "N=C(N)NCCS(=O)(=O)O", "note": "[GES, guanidinoethane sulfate]", "values": [{"measurement": "mortality, 2.5 minutes of anoxia", "setting": "[1]; 14 days i.p. pretreatment", "value": "zero"}, {"measurement": "mortality, 2.75 minutes of anoxia", "setting": "[1]; 14 days i.p. pretreatment", "value": 20, "unit": "%"}, {"measurement": "protection against 2.5 minutes anoxia", "setting": "[1]; FIG. 1", "value": 100, "unit": "%"}, {"measurement": "protection against anoxia / survival (in words)", "setting": "[1]; listed as sodium guanidinoethane sulfate", "value": "effectively prevent lactic acidosis caused by complete oxygen deficiency"}, {"measurement": "protection against anoxia / survival (in words)", "setting": "[1]", "value": "more effective than pretreatment with taurine or saline; also recorded: enhance the survival rate of mice exposed to anoxia; also recorded: significantly enhances the survival rate of adult mice exposed to anoxia"}, {"measurement": "brain pH after anoxia", "setting": "[2]; [8]", "value": "7.05±0.05"}, {"measurement": "brain pH before anoxia", "setting": "[2]; [8]", "value": "7.16±0.04"}, {"measurement": "brain pH after anoxia", "setting": "[2]; sulfate", "value": 7.05}, {"measurement": "brain pH before anoxia", "setting": "[2]; sulfate", "value": 7.16}, {"measurement": "prevention of decrease in brain pH (in words)", "setting": "[2]; p<0.05, listed as guanidinoethane sulfate", "value": "effectively protects the brain cell from the acidosis damage"}, {"measurement": "prevention of decrease in brain pH (in words)", "setting": "[2]; p<0.05, sulfate", "value": "significantly (p<0.05) prevented the decrease in the cellular pH"}, {"measurement": "brain GES level relative to saline group", "setting": "[3]", "value": "about 7 times"}, {"measurement": "neuroprotection of CA1 neurons (in words)", "setting": "[4]; 7 days after 5 min bilateral carotid occlusion, sulfate", "value": "significant nueroprotection on CA1 neurons; also recorded: Significantly higher neuronal density"}, {"measurement": "neuronal density in CA1 region, no ischemia", "setting": "[4]; GES control group (n=5), sham surgery", "value": "249 ± 9.4 /mm"}, {"measurement": "CA1 neuronal density, ischemia", "setting": "[4]; GES ischemia group", "value": "61.1±55.11 /mm"}, {"measurement": "neuronal density in CA1 region, ischemia", "setting": "[4]; GES ischemia group (n=16), 5 min occlusion, 7 days, p<0.05", "value": "61.1 ± 55.1 /mm"}, {"measurement": "protective activity by CA1 neuronal density vs saline ischemia", "setting": "[4]; in vivo", "value": "four times higher"}, {"measurement": "travelling distance before ischemia", "setting": "[5]; GES-treated gerbils", "value": "approximately 150 m/hours"}, {"measurement": "travelling distance of ischemia control vs GES ischemia group", "setting": "[5]; first day after ischemia", "value": "more than 2.5 times"}, {"measurement": "post-ischemia hyperactivity (in words)", "setting": "[5]; in vivo, sulfate", "value": "did not experienced such hyperactivity periods; also recorded: significantly suppressed; also recorded: able to suppress post-ischemic hyperactivity to close to normal levels"}, {"measurement": "observable adverse effects in behavior or respiratory pattern", "setting": "[6]", "value": "did not show any observable adverse effects"}, {"measurement": "effect on taurine transport into the brain (in words)", "setting": "[7]", "value": "competitive inhibitor of taurine transport into the brain; also recorded: effectively competes with and inhibits taurine transport into the brain"}]}]}
